Values quoted from earlier work in patent US20250041461A1, “[177LU] LUTETIUM-PSMA I&T COMPOSITION AND DOSIMETRY, KIT, METHOD OF MAKING, AND METHOD OF USING THEREOF” (Curium US LLC, priority 2023, published 2025).
Where two headings read alike, the source gives them in different places.

What was measured:
prostate cancer = settings: in vivo; cited from earlier work
[1] = numerous studies; cited from earlier work
[2] = cited from earlier work

O=C([O-])CC[C@H](NC(=O)N[C@@H](CCCCNC(=O)CCCCCCC(=O)NCCCC[C@@H](NC(=O)[C@@H](Cc1ccccc1)NC(=O)[C@@H](Cc1ccc(O)c(I)c1)NC(=O)CC[C@H](C(=O)[O-])N1CCN(CC(=O)[O-])CCN(CC(=O)[O-])CCN(CC(=O)[O-])CC1)C(=O)[O-])C(=O)[O-])C(=O)[O-].[177Lu+3].[H+].[H+].[H+].[H+].[H+] [^177Lu-PSMA I&T, (3S,7S,26R,29R,32R,37R)-29-benzyl-32-(4-hydroxy-3-iodobenzyl)-5,13,20,28,31,34-hexaoxo-37-(4,7,10-tris(carboxymethyl)-1,4,7,10-tetraazacyclododecan-1-yl)-4,6,12,21,27,30,33-heptaazaheptatriacontane-1,3,7,26,37-pentacarboxylic acid; lutetium-177 (III)]
adverse effects (prostate cancer): mainly transient adverse effects | safety and tolerability [1]: safe and well tolerated | Absorbed Dose, Kidneys, Mean ± SD ([2]; First cycle (n = 15)): 0.71 ± 0.25 Gy/GBq | Absorbed Dose, Kidneys, Range ([2]; First cycle (n = 15)): 0.33-1.22 Gy/GBq | Absorbed Dose, Lacrimal glands, Mean ± SD ([2]; First cycle (n = 15)): 3.8 ± 1.5 Gy/GBq | Absorbed Dose, Lacrimal glands, Range ([2]; First cycle (n = 15)): 1.68-7.03 Gy/GBq | Absorbed Dose, Liver, Mean ± SD ([2]; First cycle (n = 15)): 0.12 ± 0.07 Gy/GBq | Absorbed Dose, Liver, Range ([2]; First cycle (n = 15)): 0.05-0.26 Gy/GBq | Absorbed Dose, Parotid glands, Mean ± SD ([2]; First cycle (n = 15)): 0.56 Gy/GBq | Absorbed Dose, Parotid glands, Range ([2]; First cycle (n = 15)): 0.25-0.84 Gy/GBq | Absorbed Dose, Submandibular glands, Mean ± SD ([2]; First cycle (n = 15)): 0.54 ± 0.29 Gy/GBq | Absorbed Dose, Submandibular glands, Range ([2]; First cycle (n = 15)): 0.25-1.35 Gy/GBq | Effective Dose, Whole body, Mean ± SD ([2]; First cycle (n = 15)): 0.05 Sv/GBq | Effective Dose, Whole body, Range ([2]; First cycle (n = 15)): 0.02-0.11 Sv/GBq | Absorbed Dose for Tumor Lesions, Lung metastases, Mean ± SD ([2]; First cycle, n 1): 2.7 Gy/GBq | Absorbed Dose for Tumor Lesions, Liver metastases, Mean ± SD ([2]; First cycle, n 2): 1.7 Gy/GBq | Absorbed Dose for Tumor Lesions, Liver metastases, Range ([2]; First cycle, n 2): 0.85-2.59 Gy/GBq | Absorbed Dose for Tumor Lesions, Lymph node metastases, Mean ± SD ([2]; First cycle, n 5): 2.6 ± 0.89 Gy/GBq | Absorbed Dose for Tumor Lesions, Lymph node metastases, Range ([2]; First cycle, n 5): 1.63-3.76 Gy/GBq | Absorbed Dose for Tumor Lesions, Bone metastases, Mean ± SD ([2]; First cycle, n 33): 3.8 ± 3.1 Gy/GBq | Absorbed Dose for Tumor Lesions, Bone metastases, Range ([2]; First cycle, n 33): 0.22-12.03 Gy/GBq | Absorbed Dose for Tumor Lesions, All metastases, Mean ± SD ([2]; First cycle, n 41): 3.5 ± 2.9 Gy/GBq | Absorbed Dose for Tumor Lesions, All metastases, Range ([2]; First cycle, n 41): 0.22-12.03 Gy/GBq | Absorbed Dose for Tumor Lesions, Liver metastases, Mean ± SD ([2]; Fourth cycle, n 2): 1.13 Gy/GBq | Absorbed Dose for Tumor Lesions, Liver metastases, Range ([2]; Fourth cycle, n 2): 0.74-1.51 Gy/GBq | Absorbed Dose for Tumor Lesions, Bone metastases, Mean ± SD ([2]; Fourth cycle, n 10): 2.7 ± 2.3 Gy/GBq | Absorbed Dose for Tumor Lesions, Bone metastases, Range ([2]; Fourth cycle, n 10): 1.04-7.60 Gy/GBq | Absorbed Dose for Tumor Lesions, All metastases, Mean ± SD ([2]; Fourth cycle, n 12): 2.4 ± 2.2 Gy/GBq | Absorbed Dose for Tumor Lesions, All metastases, Range ([2]; Fourth cycle, n 12): 0.74-7.60 Gy/GBq | Absorbed Dose, Kidneys, Mean ± SD ([2]; Fourth cycle): 0.69 ± 0.18 Gy/GBq | Absorbed Dose, Kidneys, Range ([2]; Fourth cycle): 0.45-0.95 Gy/GBq | Absorbed Dose, Lacrimal glands, Mean ± SD ([2]; Fourth cycle): 3.4 ± 1.7 Gy/GBq | Absorbed Dose, Lacrimal glands, Range ([2]; Fourth cycle): 1.75-5.35 Gy/GBq | Absorbed Dose, Liver, Mean ± SD ([2]; Fourth cycle): 0.11 ± 0.04 Gy/GBq | Absorbed Dose, Liver, Range ([2]; Fourth cycle): 0.07-0.17 Gy/GBq | Absorbed Dose, Parotid glands, Mean ± SD ([2]; Fourth cycle): 0.50 Gy/GBq | Absorbed Dose, Parotid glands, Range ([2]; Fourth cycle): 0.32-0.58 Gy/GBq | Absorbed Dose, Submandibular glands, Mean ± SD ([2]; Fourth cycle): 0.66 ± 0.53 Gy/GBq | Absorbed Dose, Submandibular glands, Range ([2]; Fourth cycle): 0.24-1.58 Gy/GBq | Effective Dose, Whole body, Mean ± SD ([2]; Fourth cycle): 0.05 Sv/GBq | Effective Dose, Whole body, Range ([2]; Fourth cycle): 0.03-0.11 Sv/GBq | Absorbed Dose, Kidneys, Mean ± SD ([2]; Overall (n = 34)): 0.72 ± 0.21 Gy/GBq | Absorbed Dose, Kidneys, Range ([2]; Overall (n = 34)): 0.33-1.22 Gy/GBq | Absorbed Dose, Lacrimal glands, Mean ± SD ([2]; Overall (n = 34)): 3.8 ± 1.4 Gy/GBq | Absorbed Dose, Lacrimal glands, Range ([2]; Overall (n = 34)): 1.68-7.03 Gy/GBq | Absorbed Dose, Liver, Mean ± SD ([2]; Overall (n = 34)): 0.12 ± 0.06 Gy/GBq | Absorbed Dose, Liver, Range ([2]; Overall (n = 34)): 0.05-0.26 Gy/GBq | Absorbed Dose, Parotid glands, Mean ± SD ([2]; Overall (n = 34)): 0.55 Gy/GBq | Absorbed Dose, Parotid glands, Range ([2]; Overall (n = 34)): 0.25-0.84 Gy/GBq | Absorbed Dose, Submandibular glands, Mean ± SD ([2]; Overall (n = 34)): 0.64 ± 0.40 Gy/GBq | Absorbed Dose, Submandibular glands, Range ([2]; Overall (n = 34)): 0.24-1.70 Gy/GBq | Effective Dose, Whole body, Mean ± SD ([2]; Overall (n = 34)): 0.06 Sv/GBq | Effective Dose, Whole body, Range ([2]; Overall (n = 34)): 0.02-0.11 Sv/GBq | Absorbed Dose for Tumor Lesions, Lung metastases, Mean ± SD ([2]; Overall, n 3): 1.75 ± 0.92 Gy/GBq | Absorbed Dose for Tumor Lesions, Lung metastases, Range ([2]; Overall, n 3): 0.94-2.68 Gy/GBq | Absorbed Dose for Tumor Lesions, Liver metastases, Mean ± SD ([2]; Overall, n 8): 1.2 ± 0.67 Gy/GBq | Absorbed Dose for Tumor Lesions, Liver metastases, Range ([2]; Overall, n 8): 0.47-2.59 Gy/GBq | Absorbed Dose for Tumor Lesions, Lymph node metastases, Mean ± SD ([2]; Overall, n 8): 3.2 ± 2.2 Gy/GBq | Absorbed Dose for Tumor Lesions, Lymph node metastases, Range ([2]; Overall, n 8): 1.63-8.46 Gy/GBq | Absorbed Dose for Tumor Lesions, Bone metastases, Mean ± SD ([2]; Overall, n 74): 3.4 ± 2.7 Gy/GBq | Absorbed Dose for Tumor Lesions, Bone metastases, Range ([2]; Overall, n 74): 0.22-12.03 Gy/GBq | Absorbed Dose for Tumor Lesions, All metastases, Mean ± SD ([2]; Overall, n 93): 3.2 ± 2.6 Gy/GBq | Absorbed Dose for Tumor Lesions, All metastases, Range ([2]; Overall, n 93): 0.22-12.03 Gy/GBq | Absorbed Dose for Tumor Lesions, Lung metastases, Mean ± SD ([2]; Second cycle, n 1): 1.3 Gy/GBq | Absorbed Dose for Tumor Lesions, Liver metastases, Mean ± SD ([2]; Second cycle, n 2): 0.94 Gy/GBq | Absorbed Dose for Tumor Lesions, Liver metastases, Range ([2]; Second cycle, n 2): 0.70-1.17 Gy/GBq | Absorbed Dose for Tumor Lesions, Lymph node metastases, Mean ± SD ([2]; Second cycle, n 2): 5.2 Gy/GBq | Absorbed Dose for Tumor Lesions, Lymph node metastases, Range ([2]; Second cycle, n 2): 1.98-8.46 Gy/GBq | Absorbed Dose for Tumor Lesions, Bone metastases, Mean ± SD ([2]; Second cycle, n 21): 3.4 ± 2.4 Gy/GBq | Absorbed Dose for Tumor Lesions, Bone metastases, Range ([2]; Second cycle, n 21): 1.03-9.59 Gy/GBq | Absorbed Dose for Tumor Lesions, All metastases, Mean ± SD ([2]; Second cycle, n 26): 3.3 ± 2.5 Gy/GBq | Absorbed Dose for Tumor Lesions, All metastases, Range ([2]; Second cycle, n 26): 0.70-8.46 Gy/GBq | Absorbed Dose, Kidneys, Mean ± SD ([2]; Second cycle): 0.75 ± 0.19 Gy/GBq | Absorbed Dose, Kidneys, Range ([2]; Second cycle): 0.44-1.01 Gy/GBq | Absorbed Dose, Lacrimal glands, Mean ± SD ([2]; Second cycle): 4.1 ± 1.1 Gy/GBq | Absorbed Dose, Lacrimal glands, Range ([2]; Second cycle): 2.44-5.56 Gy/GBq | Absorbed Dose, Liver, Mean ± SD ([2]; Second cycle): 0.13 ± 0.05 Gy/GBq | Absorbed Dose, Liver, Range ([2]; Second cycle): 0.08-0.21 Gy/GBq | Absorbed Dose, Parotid glands, Mean ± SD ([2]; Second cycle): 0.59 Gy/GBq | Absorbed Dose, Parotid glands, Range ([2]; Second cycle): 0.47-0.80 Gy/GBq | Absorbed Dose, Submandibular glands, Mean ± SD ([2]; Second cycle): 0.71 ± 0.42 Gy/GBq
